Test results published in US20240400564A1 (Syndax Pharmaceuticals, Inc, priority 2021, published 2024).
Read-outs that look alike come from different tables or passages of the source.

Legend:
[1] = test system: MLLr leukemia cell line MV4-11; test: Cell proliferation assay MV4;11 (CellTiter-Glo, 72 hours); assay type: cell-based; conditions: Homo sapiens, read-out: MV4
In short: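 Cells in IMDM/10% FBS, seeded from a 15,000 cells/ml suspension, were exposed for 72 h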

hERG = hERG (Homo sapiens, UniProt Q12809); test: Patch clamp assay (hERG tail currents, whole-cell)
[2] = MV4-11 cells, 72 hours, CellTiter-Glo, 11 IC50

Chain of hERG (Q12809 whole entry): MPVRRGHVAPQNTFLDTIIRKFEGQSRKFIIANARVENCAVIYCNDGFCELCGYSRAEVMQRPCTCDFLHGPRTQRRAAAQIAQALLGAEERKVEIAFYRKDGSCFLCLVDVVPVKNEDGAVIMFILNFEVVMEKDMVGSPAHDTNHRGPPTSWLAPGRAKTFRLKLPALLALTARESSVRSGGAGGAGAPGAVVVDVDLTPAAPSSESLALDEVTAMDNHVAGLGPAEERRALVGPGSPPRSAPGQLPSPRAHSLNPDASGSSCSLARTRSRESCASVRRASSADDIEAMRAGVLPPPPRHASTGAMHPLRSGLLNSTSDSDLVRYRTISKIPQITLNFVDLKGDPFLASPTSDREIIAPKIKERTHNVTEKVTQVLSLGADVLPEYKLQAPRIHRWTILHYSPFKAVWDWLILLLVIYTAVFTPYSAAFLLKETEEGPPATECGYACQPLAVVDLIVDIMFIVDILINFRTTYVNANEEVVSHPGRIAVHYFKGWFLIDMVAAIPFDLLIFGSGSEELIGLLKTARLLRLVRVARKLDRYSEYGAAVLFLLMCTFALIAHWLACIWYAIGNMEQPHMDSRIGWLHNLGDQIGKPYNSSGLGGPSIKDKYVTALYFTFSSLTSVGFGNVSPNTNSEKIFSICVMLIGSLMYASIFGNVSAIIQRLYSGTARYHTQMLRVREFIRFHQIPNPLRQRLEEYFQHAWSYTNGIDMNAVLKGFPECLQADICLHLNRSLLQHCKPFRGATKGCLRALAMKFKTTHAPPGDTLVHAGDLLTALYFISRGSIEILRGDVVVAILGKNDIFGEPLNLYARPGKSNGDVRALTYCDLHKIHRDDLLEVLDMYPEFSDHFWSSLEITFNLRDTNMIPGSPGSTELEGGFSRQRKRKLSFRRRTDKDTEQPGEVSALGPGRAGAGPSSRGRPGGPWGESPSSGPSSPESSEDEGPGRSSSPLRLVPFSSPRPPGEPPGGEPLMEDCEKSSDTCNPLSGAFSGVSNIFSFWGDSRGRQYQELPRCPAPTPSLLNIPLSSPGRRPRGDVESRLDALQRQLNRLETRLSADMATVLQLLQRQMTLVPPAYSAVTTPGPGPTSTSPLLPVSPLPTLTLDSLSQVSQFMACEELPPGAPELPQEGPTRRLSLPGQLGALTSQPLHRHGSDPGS

| IC50 [1, 2] [nM] | Compound | hERG % Remaining (hERG; 30 μM compound) | hERG % Remaining (hERG; 10 μM compound) | IC50 ([1]; MV4-11, 72 h, 11 IC50 (nM)) [nM] |
| --- | --- | --- | --- | --- |
| < 100 | CC(C)N(CC(F)F)C(=O)c1cc(F)ccc1Oc1cncnc1N1CC2(CCN(C[C@@H]3CC[C@@H](NS(=O)(=O)c4ccn(C)n4)CO3)CC2)C1 [Example 103, N-(2,2-Difluoroethyl)-5-fluoro-N-isopropyl-2-((4-(7-(((2S,5R)-5-((1-methyl-1H-pyrazole)-3-sulfonamido)tetrahydro-2H-pyran-2-yl)methyl)-2,7-diazaspiro[3.5]nonan-2-yl)pyrimidin-5-yl)oxy)benzamide] | +++ (≥66%) |  |  |
| < 100 | Cc1c(S(=O)(=O)N[C@@H]2CC[C@@H](CN3CCC4(CC3)CN(c3ncncc3Oc3ccc(F)cc3C(=O)N(CC(F)F)C(C)C)C4)OC2)cnn1C [Example 104, N-(2,2-Difluoroethyl)-2-((4-(7-(((2S,5R)-5-((1,5-dimethyl-1H-pyrazole)-4-sulfonamido)tetrahydro-2H-pyran-2-yl)methyl)-2,7-diazaspiro[3.5]nonan-2-yl)pyrimidin-5-yl)oxy)-5-fluoro-N-isopropylbenzamide] | +++ (≥66%) |  |  |
| < 100 | Cc1nn(C)cc1S(=O)(=O)N[C@@H]1CC[C@@H](CN2CCC3(CC2)CN(c2ncncc2Oc2ccc(F)cc2C(=O)N(CC(F)F)C(C)C)C3)OC1 [Example 105, N-(2,2-Difluoroethyl)-2-((4-(7-(((2S,5R)-5-((1,3-dimethyl-1H-pyrazole)-4-sulfonamido)tetrahydro-2H-pyran-2-yl)methyl)-2,7-diazaspiro[3.5]nonan-2-yl)pyrimidin-5-yl)oxy)-5-fluoro-N-isopropylbenzamide] | +++ (≥66%) |  |  |
| < 100 | CC(C)N(C(=O)c1cc(F)ccc1Oc1cncnc1N1CC2(CCN(C[C@@H]3CC[C@@H](NS(=O)(=O)c4cnn(C)c4)CO3)CC2)C1)C1CC(F)(F)C1 [Example 156, N-(3,3-Difluorocyclobutyl)-5-fluoro-N-isopropyl-2-((4-(7-(((2S,5R)-5-((1-methyl-1H-pyrazole)-4-sulfonamido)tetrahydro-2H-pyran-2-yl)methyl)-2,7-diazaspiro[3.5]nonan-2-yl)pyrimidin-5-yl)oxy)benzamide] | +++ (≥66%) |  |  |
| < 100 | CCN(C(=O)c1cc(F)ccc1Oc1cncnc1N1CC2(CCN(C[C@@H]3CC[C@@H](NS(=O)(=O)N4CCC[C@H]4C)CO3)CC2)C1)C(C)C [Example 200, N-Ethyl-5-fluoro-N-isopropyl-2-((4-(7-(((2S,5R)-5-(((R)-2-methylpyrrolidine)-1-sulfonamido)tetrahydro-2H-pyran-2-yl)methyl)-2,7-diazaspiro[3.5]nonan-2-yl)pyrimidin-5-yl)oxy)benzamide] | + (<33%) | ++ (233% and ≤66%) |  |
| < 100 | CCN(C(=O)c1cc(F)ccc1Oc1cncnc1N1CC2(CCN(C[C@@H]3CC[C@@H](NS(=O)(=O)N4CCC[C@@H]4C)CO3)CC2)C1)C(C)C [Example 201, N-Ethyl-5-fluoro-N-isopropyl-2-((4-(7-(((2S,5R)-5-(((S)-2-methylpyrrolidine)-1-sulfonamido)tetrahydro-2H-pyran-2-yl)methyl)-2,7-diazaspiro[3.5]nonan-2-yl)pyrimidin-5-yl)oxy)benzamide] | + (<33%) | + (<33%) |  |
| < 100 | CC(C)N(C(=O)c1cc(F)ccc1Oc1cncnc1N1CC2(CCN(C[C@@H]3CC[C@@H](NS(=O)(=O)N4CCC[C@@H]4C)CO3)CC2)C1)C(C)C [Example 202, 5-Fluoro-N,N-diisopropyl-2-((4-(7-(((2S,5R)-5-(((S)-2-methylpyrrolidine)-1-sulfonamido)tetrahydro-2H-pyran-2-yl)methyl)-2,7-diazaspiro[3.5]nonan-2-yl)pyrimidin-5-yl)oxy)benzamide] | + (<33%) |  |  |
| < 100 | CC(C)N(C(=O)c1cc(F)ccc1Oc1cncnc1N1CC2(CCN(C[C@@H]3CC[C@@H](NS(=O)(=O)N4CCC[C@H]4C)CO3)CC2)C1)C(C)C [Example 203, 5-Fluoro-N,N-diisopropyl-2-((4-(7-(((2S,5R)-5-(((R)-2-methylpyrrolidine)-1-sulfonamido)tetrahydro-2H-pyran-2-yl)methyl)-2,7-diazaspiro[3.5]nonan-2-yl)pyrimidin-5-yl)oxy)benzamide] | + (<33%) |  |  |
| < 100 | C[C@@H]1COC[C@@H](C)N1C(=O)c1cc(F)ccc1Oc1cncnc1N1CC2(CCN(C[C@@H]3CC[C@@H](NS(=O)(=O)N4CCC[C@H]4C)CO3)CC2)C1 [Example 208, (R)-N-((3R,6S)-6-((2-(5-(2-((3R,5R)-3,5-Dimethylmorpholine-4-carbonyl)-4-fluorophenoxy)pyrimidin-4-yl)-2,7-diazaspiro[3.5]nonan-7-yl)methyl)tetrahydro-2H-pyran-3-yl)-2-methylpyrrolidine-1-sulfonamide] | +++ (≥66%) |  |  |
| < 100 | CO[C@H]1CCN(S(=O)(=O)N[C@@H]2CC[C@@H](CN3CCC4(CC3)CN(c3ncncc3Oc3ccc(F)cc3C(=O)N(C(C)C)C(C)C)C4)OC2)C1 [Example 210, 5-Fluoro-N,N-diisopropyl-2-((4-(7-(((2S,5R)-5-(((S)-3-methoxypyrrolidine)-1-sulfonamido)tetrahydro-2H-pyran-2-yl)methyl)-2,7-diazaspiro[3.5]nonan-2-yl)pyrimidin-5-yl)oxy)benzamide] | +++ (≥66%) |  |  |
| < 100 | CO[C@@H]1CCN(S(=O)(=O)N[C@@H]2CC[C@@H](CN3CCC4(CC3)CN(c3ncncc3Oc3ccc(F)cc3C(=O)N(C(C)C)C(C)C)C4)OC2)C1 [Example 211, 5-Fluoro-N,N-diisopropyl-2-((4-(7-(((2S,5R)-5-(((R)-3-methoxypyrrolidine)-1-sulfonamido)tetrahydro-2H-pyran-2-yl)methyl)-2,7-diazaspiro[3.5]nonan-2-yl)pyrimidin-5-yl)oxy)benzamide] | +++ (≥66%) |  |  |
| < 100 | CCN(C(=O)c1cc(F)ccc1Oc1cncnc1N1CC2(CCN(C[C@@H]3CC[C@@H](NS(=O)(=O)c4ccc(=O)[nH]c4C)CO3)CC2)C1)C(C)C [Example 217, N-Ethyl-5-fluoro-N-isopropyl-2-((4-(7-(((2S,5R)-5-((2-methyl-6-oxo-1,6-dihydropyridine)-3-sulfonamido)tetrahydro-2H-pyran-2-yl)methyl)-2,7-diazaspiro[3.5]nonan-2-yl)pyrimidin-5-yl)oxy)benzamide] | +++ (≥66%) |  |  |
| < 100 | CCN(C(=O)c1cc(F)ccc1Oc1cncnc1N1CC2(CCN(C[C@@H]3CC[C@@H](NS(=O)(=O)c4c[nH]c(=O)c(C)c4)CO3)CC2)C1)C(C)C [Example 218, N-Ethyl-5-fluoro-N-isopropyl-2-((4-(7-(((2S,5R)-5-((5-methyl-6-oxo-1,6-dihydropyridine)-3-sulfonamido)tetrahydro-2H-pyran-2-yl)methyl)-2,7-diazaspiro[3.5]nonan-2-yl)pyrimidin-5-yl)oxy)benzamide] | + (<33%) |  |  |
| < 100 | CC(C)N(C(=O)c1cc(F)ccc1Oc1cncnc1N1CC2(CCN(C[C@@H]3CC[C@@H](NS(=O)(=O)N4CC5COCC5C4)CO3)CC2)C1)C(C)C (stereo partly drawn) [Example 224, 5-Fluoro-2-((4-(7-(((2S,5R)-5-((hexahydro-1H-furo[3,4-c]pyrrole)-5-sulfonamido)tetrahydro-2H-pyran-2-yl)methyl)-2,7-diazaspiro[3.5]nonan-2-yl)pyrimidin-5-yl)oxy)-N,N-diisopropylbenzamide] | +++ (≥66%) |  |  |
|  | CCS(=O)(=NC)N[C@@H]1CC[C@@H](CN2CCC3(CC2)CN(c2ncncc2Oc2ccc(F)cc2C(=O)N(C(C)C)C(C)C)C3)OC1 (stereo partly drawn) [Example 231, 5-Fluoro-N,N-diisopropyl-2-((4-(7-(((2S,5R)-5-(N′-methylethylsulfonoamidimidamido)tetrahydro-2H-pyran-2-yl)methyl)-2,7-diazaspiro[3.5]nonan-2-yl)pyrimidin-5-yl)oxy)benzamide] | +++ (≥66%) |  | < 100 |
| < 100 | CC(C)N(CC(F)F)C(=O)c1cc(F)ccc1Oc1cncnc1N1CC2(CCN(C[C@@H]3CC[C@@H](NS(=O)(=O)c4nn(C)cc4F)CO3)CC2)C1 [Example 241, N-(2,2-Difluoroethyl)-5-fluoro-2-((4-(7-(((2S,5R)-5-((4-fluoro-1-methyl-1H-pyrazole)-3-sulfonamido)tetrahydro-2H-pyran-2-yl)methyl)-2,7-diazaspiro[3.5]nonan-2-yl)pyrimidin-5-yl)oxy)-N-isopropylbenzamide] | ++ (233% and ≤66%) |  |  |
